Measurements as given in patent publication US11391739B2, “Compositions and methods for treating multiple myeloma” (DANA-FARBER CANCER INSTITUTE, INC., priority 2014, dated 2022).

Assays:
Format in all cases: cell-based, human
H929 and MM1S cells [1] = test: Proliferation of MM cells ([3H]TdR incorporation)
Method: Cell proliferation was evaluated by [^3H]TdR incorporation as described in Mani et al., Cancer Res. 69: 7577-7586 (2009). When proliferation of MM cells was determined in the presence of HS5 or BMEC-60 cells, the latter were previously gamma-irradiated (10,000 rads) and dispensed into 96-well plates. Then, MM1S and H929 cells were co-cultured with either BMEC-60 cells, CM alone, CyPA, or CyPB for 72 hrs. Viability of MM1s-Luc cells were co-cultured with BMEC-60 cells and then treated with drugs as described was assessed, using the tumor cell-specific in vitro bioluminescence imaging (SS-BLI).

MM1S-luc cells = test: Transwell migration assay of MM1S-luc cells
Method: For cell migration assays, the top chamber of transwell plates ([…], Corning Costar) was seeded with 2×10^5 MM1S-luc cells, and the bottom chamber was seeded with either medium (0.1% FBS) alone, BMEC-60 cells, BMEC-60 cell-conditioned medium, or plain medium containing CyPA and/or CD147. After 12 hrs of incubation, MM1S-luc cells that had migrated to the bottom chamber were collected and quantified by Xenogen Imaging. Migration of RPMI, U266, CLL, LPL, or primary tumor cells was evaluated by counting the number of unlabeled cells in the lower chamber. Each experiment was done in triplicate and repeated twice. Recombinant HPLC-purified eCyPA was purchased from BioMart Inc. and eCyPB (PPIB) human recombinant protein was purchased from Abnova. In most instances, 50 ng/ml of eCyPA or eCyPB diluted in serum-free RPMI medium was used. CM was collected from confluent cultures of BMEC-60 cells incubated for 48 hours. When needed, the CM was treated with 100 μ/ml proteinase K (19133, Qiagen) for 2 hrs and then deactivated for 15 min at 70° C. Anti-CD147 (UM-8D6) antibody and monoclonal mouse IgG1 (MOPC31C) were obtained from Ancell; anti-CXCR4 (MAB171) was from R&D systems. Migration data were normalized using the data obtained with medium alone. Results are means.±SD for triplicate assays.

[2] = test system: H929, OPM2, RPMI and primary MM cells; test: Transwell migration assay of other MM cell lines and primary MM cells; conditions: 50 ng/ml recombinant protein
Method: FIG. 12. (FIG. 12A) CyPA immunostains in two different NBM, kidney, liver, and lymph node biopsies from healthy subjects. (FIG. 12B) Serum levels of eCyPA in 10 BM aspirates from MGUS and MM patients. (FIG. 12C) Transwell migration assay of MM1S-luc cells incubated in the absence of serum (Medium) or BM serum from two different MM patients with low (PT #4) and high (PT #12) levels of eCyPA (same as FIG. 4I). Migration data was normalized based on data of medium alone. (FIG. 12D) Transwell migration assay of H929, OPM2 and RPMI cells incubated with medium alone or in the presence of 50 ng/ml of recombinant eCyPA. (FIG. 12E) Transwell migration assay of two MM primary tumors (MMPT #1 and MMPT #2) incubated with medium alone or 50 ng/ml of recombinant eCyPA or BMEC-60 cells.
(§1) For cell migration assays, the top chamber of transwell plates ([…], Corning Costar) was seeded with 2×10^5 MM1S-luc cells, and the bottom chamber was seeded with either medium (0.1% FBS) alone, BMEC-60 cells, BMEC-60 cell-conditioned medium, or plain medium containing CyPA and/or CD147. After 12 hrs of incubation, MM1S-luc cells that had migrated to the bottom chamber were collected and quantified by Xenogen Imaging. Migration of RPMI, U266, CLL, LPL, or primary tumor cells was evaluated by counting the number of unlabeled cells in the lower chamber. […]

H929 and MM1S cells [3] = test: Immunoblot analysis of total protein extracts from MM cells
Method: Total protein samples were prepared from non-attached H929 and MM1S cells grown in CM from cultures of BMEC-60 or BMEC-1 cells attached for 72 hr. In some experiments, the cells were co-cultured with BMEC-60 cells using transwell chambers (Corning Costar, 0.45 µm pore diameter). Immunoblotting was performed as described in Takada et al., Sci. Transl. Med. 4, 148ra117 (2012). When MM1S and H929 cells were treated with eCyPA or CD147 Ab, they were first incubated with eCyPA or CD147 Ab for 5 hrs in serum-free medium. Then 0.5% serum was added, and incubation was resumed for another 72 hrs before performing protein preparation. Anti-human primary antibodies included: BCL9 (2D4, Abnova), CyPA (ERPR7511, Abcam), CD147 (#13287, Cell Signaling), pSTAT3 (#9131, Cell Signaling), pERK (#4370, Cell Signaling), PARP (#9542, Cell Signaling), pAKT (#9271, Cell Signaling), Active-β-catenin (05-665, Millipore), Factor VIII (A0082, DAKO), MMP-9 (MAB911, R&D), CyPB (MAB5410, R&D), and horseradish peroxidase (HRP)-conjugated actin (C-11, Santa Cruz). Actin Ab was used as a loading control. Secondary antibodies included: anti-rabbit IgG (HRP)-conjugated (W402b, Promega), and anti-mouse IgG (HRP)-conjugated (W401b, Promega). Protein concentrations were measured in triplicate by Bradford assay (BioRad). Optimal antibody concentrations were used according to the manufacturer's recomendations.

CLL and LPL cells = test: Transwell migration assay of CLL and LPL cells; conditions: 50 ng/ml recombinant eCyPA
Text: FIG. 16. (FIG. 16A) Representative immunostains (top, n=10) and flow cytometric (bottom, n=6) analysis of CD147 expression in BM samples from CLL patients. (FIG. 16B) Representative immunostains (top, n=10) and flow cytometric (bottom, n=6) analysis of CD147 expression in BM samples from LPL patients. (FIG. 16C) Flow cytometry of CD147 (red line) and control isotype (black line) expression in one CLL cell line (HG3) and one primary tumor patient cells (CLLPT #1). (FIG. 16D) Flow cytometry of CD147 (red line) and control isotype (black line) expression in one LPL cell line (BCWM.1) and one primary tumor patient cells (LPLPT #1). […] Migration of primary CLL and LPL tumor patient cells was evaluated in four different samples for each tumor type. […] Unlabeled cell lines and primary tumors were used, and migration was evaluated by counting cells in the bottom chamber. […]
as §1, with “Imaging.” for “Imaging. Migration of RPMI, U266, CLL, LPL, or primary tumor cells was evaluated by counting the number of unlabeled cells in the lower chamber.”

| Substance | proliferation of MM cells (H929 and MM1S cells [1]; tested at much higher concentrations than those in BM serum of MM patients) | migration of MM1S-luc cells, CyPB compared with CyPA (MM1S-luc cells; 50 ng/ml each) | migration of other MM cell lines (H929, OPM2, RPMI) [2] | migration of primary MM cells [2] | signaling pathways (Wnt/β-catenin, STAT3, AKT, ERK) in MM cells (H929 and MM1S cells [3]; 50 ng/ml eCyPA vs without) | higher-glycosylated form of CD147 in MM cells (H929 and MM1S cells [3]; CyPA-treated) | expression of matrix metalloprotease 9 (MMP-9) (H929 and MM1S cells [3]; cells treated with eCyPA) | CD147 expression in MM cells (H929 and MM1S cells [3]; concentration-dependent and time-dependent) | proliferation of H929 and MM1S cells (H929 and MM1S cells [1]; concentration-dependent) | migration of CLL cells (CLL and LPL cells) | migration of LPL cells (CLL and LPL cells) | concentration giving maximal migration response (MM1S-luc cells; MM1S-luc cells) [ng/mL] | lowest concentration inducing significant migration (MM1S-luc cells; MM1S-luc cells) [ng/mL] | migration of MM cells incubated with BMEC-1 transduced with CyPA-shRNAs (MM1S-luc cells; addition of 50 ng/ml recombinant eCyPA) | migration of MM1S-luc cells (MM1S-luc cells; purified recombinant protein, time- and concentration-dependent) |
| --- | --- | --- | --- | --- | --- | --- | --- | --- | --- | --- | --- | --- | --- | --- | --- |
| CyPB: eCyPB (PPIB) human recombinant protein purchased from Abnova | induces proliferation | Major differences were likewise not observed |  |  |  |  |  |  |  |  |  |  |  |  |  |
| eCyPA: Recombinant HPLC-purified eCyPA (extracellular cyclophilin A) purchased from BioMart Inc. |  |  | induced migration | induced migration | activation of several signaling pathways | increased | increased | dramatically increased | enhanced | enhanced migration | enhanced migration | 50 | 6 | restored migration | promoted migration |
